Experimental data from ChEMBL document CHEMBL1133852, “Stereoselective synthesis of 7 alpha- and 7 beta-aminocholestanol as potent fungicidal drugs” (2001).
In brackets after ≈: the same amount, converted by molar mass.

Experiments:
Format in all cases: functional
Candida albicans [1] = assay: Tested for antifungal activity against Candida albicans CIP 1180-79 after 48 h incubation
Candida tropicalis [2] = assay: Tested for antifungal activity against amp B resistant strain Candida tropicalis CIP 1275-81 after 48 hr incubation
Saccharomyces cerevisiae = assay: Tested for antifungal activity against Saccharomyces cerevisiae ATCC 28 383 after 48 hr incubation; details: ATCC 28, 48 h
Candida albicans [3] = assay: Tested for antifungal activity against azole resistant strain Candida albicans CIP 1760-88 after 48 hr incubation
Candida tropicalis [4] = assay: Tested for antifungal activity against 5-FC resistant strain Candida tropicalis CIP 1745-88 after 48 hr incubation

SMILES | MIC (Candida albicans [1]) | MIC (Candida tropicalis [2]) | MIC (Saccharomyces cerevisiae) | MIC (Candida albicans [3]) | MIC (Candida tropicalis [4])
CC(C)CCC[C@@H](C)C1CC[C@H]2[C@@H]3[C@@H](N)CC4C[C@@H](O)CC[C@]4(C)[C@H]3CC[C@]12C (some centres undefined) | 1.5 µg/mL (≈ 3.72 µM) | 1.5 µg/mL (≈ 3.72 µM) | 0.4 µg/mL (≈ 0.991 µM) | 1.5 µg/mL (≈ 3.72 µM) | 3.1 µg/mL (≈ 7.68 µM)
CC(C)CCC[C@@H](C)C1CC[C@H]2[C@@H]3[C@H](N)CC4C[C@@H](O)CC[C@]4(C)[C@H]3CC[C@]12C (some centres undefined) | 6.2 µg/mL (≈ 15.4 µM) | 1.5 µg/mL (≈ 3.72 µM) | 3.1 µg/mL (≈ 7.68 µM) | 3.1 µg/mL (≈ 7.68 µM) | 3.1 µg/mL (≈ 7.68 µM)
CC(C)CCCC(C)[C@H]1CC[C@H]2C3C(N)C=C4C[C@@H](O)CCC4(C)[C@H]3CCC12C (some centres undefined) | 2.6 µg/mL (≈ 6.47 µM) | 1.5 µg/mL (≈ 3.73 µM) | 2.4 µg/mL (≈ 5.97 µM) | 2.3 µg/mL (≈ 5.73 µM) | 3.1 µg/mL (≈ 7.72 µM)
C[C@@H]1[C@H](O)[C@@H](C)/C=C/C=C/C=C/C=C/C=C/C=C/C=C/[C@H](O[C@@H]2O[C@H](C)[C@@H](O)[C@H](N)[C@@H]2O)C[C@@H]2O[C@](O)(C[C@@H](O)C[C@@H](O)[C@H](O)CC[C@@H](O)C[C@@H](O)CC(=O)O[C@H]1C)C[C@H](O)[C@H]2C(=O)O [AMPHOTERICIN B] | 0.4 µg/mL (≈ 0.433 µM) | 12.5 µg/mL (≈ 13.5 µM) | 0.3 µg/mL (≈ 0.325 µM) |  | 
c1ccc(-c2ccc(C(c3ccccc3)n3ccnc3)cc2)cc1 (centres undefined) [BIFONAZOLE] | 12.5 µg/mL (≈ 40.3 µM) |  | 6.2 µg/mL (≈ 20 µM) | 50 µg/mL (≈ 161 µM) | 
Nc1nc(=O)[nH]cc1F [FLUCYTOSINE] | 50 µg/mL (≈ 387 µM) |  | 6.2 µg/mL (≈ 48 µM) |  | > 100 µg/mL
